Columns and labels:
hNaV1.7 = target: T1, hNaV1.7 (Homo sapiens, UniProt Q15858); assay: FDSS Membrane Potential In-Vitro Assay; format: cell-based; conditions: stimulation with veratridine and scorpion venom, read-out: NaV1.7 IC50
T1 construct: expressed in transfected cells

NaV1.7 = target: T2, NaV1.7 (Homo sapiens, UniProt Q15858); assay: Patchliner Electrophysiological In-Vitro Assay (NaV1.7); format: cell-based; conditions: Patchliner patch clamp, HEK293, holding at V1/2
T2 construct: expressed in transfected cells
T2 sequence (Q15858 whole entry): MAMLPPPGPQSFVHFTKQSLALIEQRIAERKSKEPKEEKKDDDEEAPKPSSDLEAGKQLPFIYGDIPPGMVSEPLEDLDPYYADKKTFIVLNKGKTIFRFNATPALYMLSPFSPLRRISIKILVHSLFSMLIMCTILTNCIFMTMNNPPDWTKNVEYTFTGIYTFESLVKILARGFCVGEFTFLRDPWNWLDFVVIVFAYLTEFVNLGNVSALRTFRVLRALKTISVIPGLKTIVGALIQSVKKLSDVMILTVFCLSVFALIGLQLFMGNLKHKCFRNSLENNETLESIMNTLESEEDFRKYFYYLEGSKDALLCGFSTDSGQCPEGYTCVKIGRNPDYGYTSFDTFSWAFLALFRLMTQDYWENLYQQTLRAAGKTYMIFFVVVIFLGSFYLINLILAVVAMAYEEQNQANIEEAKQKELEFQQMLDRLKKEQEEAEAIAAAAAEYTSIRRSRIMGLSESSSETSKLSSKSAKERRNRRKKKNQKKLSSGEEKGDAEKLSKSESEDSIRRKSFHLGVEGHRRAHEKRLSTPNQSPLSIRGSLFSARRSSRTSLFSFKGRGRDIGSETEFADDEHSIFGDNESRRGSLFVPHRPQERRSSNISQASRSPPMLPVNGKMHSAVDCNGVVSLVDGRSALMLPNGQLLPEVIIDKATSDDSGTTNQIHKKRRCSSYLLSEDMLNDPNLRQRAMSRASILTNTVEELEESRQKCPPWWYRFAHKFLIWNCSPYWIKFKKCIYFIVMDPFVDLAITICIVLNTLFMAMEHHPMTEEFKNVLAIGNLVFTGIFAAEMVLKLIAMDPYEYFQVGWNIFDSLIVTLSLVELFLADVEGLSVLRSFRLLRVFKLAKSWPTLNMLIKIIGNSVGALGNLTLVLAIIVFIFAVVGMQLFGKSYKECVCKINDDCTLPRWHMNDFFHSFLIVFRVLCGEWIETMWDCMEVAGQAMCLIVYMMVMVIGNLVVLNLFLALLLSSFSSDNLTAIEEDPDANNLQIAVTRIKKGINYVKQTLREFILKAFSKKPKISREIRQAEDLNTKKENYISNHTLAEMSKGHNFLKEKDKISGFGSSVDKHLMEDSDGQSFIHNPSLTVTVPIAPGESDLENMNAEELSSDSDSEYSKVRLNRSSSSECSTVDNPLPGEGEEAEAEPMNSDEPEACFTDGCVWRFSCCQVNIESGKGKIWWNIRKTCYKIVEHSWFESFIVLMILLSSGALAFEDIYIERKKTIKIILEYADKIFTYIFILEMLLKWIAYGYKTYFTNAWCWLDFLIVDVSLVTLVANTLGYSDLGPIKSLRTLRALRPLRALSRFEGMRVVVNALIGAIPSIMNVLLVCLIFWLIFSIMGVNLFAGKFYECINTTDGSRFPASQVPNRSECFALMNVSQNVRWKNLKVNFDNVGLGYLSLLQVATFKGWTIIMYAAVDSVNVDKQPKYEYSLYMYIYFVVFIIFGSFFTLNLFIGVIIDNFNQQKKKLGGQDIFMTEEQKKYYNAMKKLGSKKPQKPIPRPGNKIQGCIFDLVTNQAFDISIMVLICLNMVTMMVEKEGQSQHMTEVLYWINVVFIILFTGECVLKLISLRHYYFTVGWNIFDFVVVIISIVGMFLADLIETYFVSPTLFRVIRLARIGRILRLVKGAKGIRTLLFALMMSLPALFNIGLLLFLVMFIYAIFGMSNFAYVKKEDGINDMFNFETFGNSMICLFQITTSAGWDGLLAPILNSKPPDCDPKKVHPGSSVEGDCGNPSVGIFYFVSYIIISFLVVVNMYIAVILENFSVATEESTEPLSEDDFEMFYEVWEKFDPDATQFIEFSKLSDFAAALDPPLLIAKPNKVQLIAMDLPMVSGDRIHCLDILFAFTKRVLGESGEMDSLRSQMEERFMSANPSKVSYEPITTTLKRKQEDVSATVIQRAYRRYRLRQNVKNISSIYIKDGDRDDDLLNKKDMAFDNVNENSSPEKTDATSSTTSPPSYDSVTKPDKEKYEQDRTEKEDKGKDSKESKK
T2 sequence (Q07699 19-218 partner): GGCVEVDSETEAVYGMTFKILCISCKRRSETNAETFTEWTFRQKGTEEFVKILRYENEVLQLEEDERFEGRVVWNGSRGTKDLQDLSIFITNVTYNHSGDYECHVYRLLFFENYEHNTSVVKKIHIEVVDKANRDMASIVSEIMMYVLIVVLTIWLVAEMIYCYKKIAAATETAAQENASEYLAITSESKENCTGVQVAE
T2 sequence (O60939 30-215 partner): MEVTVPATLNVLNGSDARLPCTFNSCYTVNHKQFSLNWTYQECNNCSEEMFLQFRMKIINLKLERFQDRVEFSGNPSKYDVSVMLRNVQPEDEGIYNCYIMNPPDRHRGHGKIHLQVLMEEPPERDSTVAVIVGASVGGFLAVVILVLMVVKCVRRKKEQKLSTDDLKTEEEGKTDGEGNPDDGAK
Protocol: In vitro assays were performed in recombinant cell line that stably express a heterotrimeric protein of interest from an introduced nucleic acid encoding the alpha subunit (hNav1.7, SCN9A), the beta subunit (SCNB1) and the beta subunit (SCNB2). The cell line was engineered using Human Embryonic Kidney 293 cells as host background. Additional cell lines stably expressing recombinant Nav1.7 or Nav1.5 alpha subunit alone or in combination with various beta subunits can also be used in in-vitro assays.
(§1) The recording of sodium current from stable HEK293 cell lines expressing NaV1.7 or NaV1.5 was done on a Patchliner® instrument, Nanion Technologies. The Patchliner® is a fully automated bench-top patch clamp platform and can record simultaneously from up to eight single cells with GΩ seals.
(§2) For patch-clamp experiments, cells were grown under standard culturing conditions in Dulbecco's Modified Eagles medium supplemented with 10% fetal bovine serum, glutamine and HEPES. Cells were harvested and kept in suspension for up to 4 hours with no significant change in quality or ability to patch. Whole cell patch clamp recordings were conducted according to Nanion's standard procedure for the Patchliner®. Experiments were conducted at room temperature.
(§3) Voltage protocols were designed to establish: 1) peak current amplitude (Imax), 2) test potential (Vmax) and 3) half-inactivation potential (V1/2) for each of the eight individual cells. To determine V1/2, a standard steady-state inactivation protocol was executed using a series of fifteen 500 ms depolarizing pre-pulses in 10 mV increments (starting at −130 mV) and immediately followed by a 10 ms test pulse to Vmax. To estimate test compound affinity to the inactivated state of sodium channel (Ki), the holding potential for each cell was set automatically to the V1/2 calculated from a steady-state inactivation data. The current was activated with the following voltage protocol: holding at V1/2 for 2-5 seconds, return to the −120 mV for 5-10 ms to relieve fast inactivation, stepping to test potential (Vmax) for 10-20 ms. This voltage protocol was repeated every 10 seconds to establish the baseline with 2-3 buffer additions followed by the test compound addition. The dose-dependent inhibition was analyzed using Nanion's Data Analysis Package.

CYP3A4 = target: T3, CYP3A4 (Homo sapiens, UniProt P08684); assay: In-Vitro Cytochrome P450 (CYP450) Inhibition Assay (Vivid CYP450); format: in vitro ADME; conditions: CYP3A4 enzyme complex (Vivid CYP450, Invitrogen), 6 μM test concentration
T3 construct: purchased Invitrogen
T3 sequence (P08684 2-503 limits assumed): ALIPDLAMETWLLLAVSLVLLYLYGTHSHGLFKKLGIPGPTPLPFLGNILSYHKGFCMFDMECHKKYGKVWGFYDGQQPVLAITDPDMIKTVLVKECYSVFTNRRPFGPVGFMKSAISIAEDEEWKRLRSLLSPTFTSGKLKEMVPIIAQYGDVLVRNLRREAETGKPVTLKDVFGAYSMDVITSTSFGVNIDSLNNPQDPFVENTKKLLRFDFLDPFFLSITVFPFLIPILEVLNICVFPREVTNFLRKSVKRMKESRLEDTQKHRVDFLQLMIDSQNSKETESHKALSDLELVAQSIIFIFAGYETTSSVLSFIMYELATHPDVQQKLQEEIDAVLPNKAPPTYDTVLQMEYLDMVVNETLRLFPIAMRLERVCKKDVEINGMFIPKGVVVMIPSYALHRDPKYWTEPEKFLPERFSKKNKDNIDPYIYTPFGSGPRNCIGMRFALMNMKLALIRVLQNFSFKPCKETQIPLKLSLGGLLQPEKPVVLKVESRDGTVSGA
Protocol: We evaluated interaction of drug candidates with cytochrome P450 enzymes which are a major determinant of drug clearance via oxidative metabolism using a high throughput compatible, fluorescence based CYP450 screening assay (Vivid® CYP450, Invitrogen) according to manufacturer's directions.
In brief, test compounds at four different concentrations (μM—6.0, 2.0, 0.7, 0.2), a positive control (Ketoconazole) and a solvent control were incubated at room temperature in unique wells of a 96-well microtiter plate with CYP3A4 enzyme complex for 20 minutes. A pre-read fluorescence (Ex−485 nm/Em−530 nm) was measured at the start of the incubation using a Tecan Safire^2 microplate reader-monochromator to determine background fluorescence. At the end of the incubation period, enzyme substrate and co-enzyme were added and the reaction was kinetically monitored for 1 hour by measuring fluorescence every minute. Effect of test compounds on inhibition of CYP3A4 metabolism of provided substrate was determined by calculating the ratio of the effective reaction rate in presence of test compound to that in the absence of inhibitor.

[1] = system: Formalin Test (pain behaviors); assay: Formalin Test (pain behaviors); format: in vivo, rat; conditions: relative to vehicle control; 150 μL of 1 or 2% w/v solution, topical route
NaV1.5 = target: T4, NaV1.5 (Homo sapiens, UniProt Q14524); assay: Patchliner Electrophysiological In-Vitro Assay (NaV1.5); format: cell-based; conditions: Patchliner patch clamp, HEK293
T4 construct: expressed in transfected cells
T4 sequence (Q14524 whole entry): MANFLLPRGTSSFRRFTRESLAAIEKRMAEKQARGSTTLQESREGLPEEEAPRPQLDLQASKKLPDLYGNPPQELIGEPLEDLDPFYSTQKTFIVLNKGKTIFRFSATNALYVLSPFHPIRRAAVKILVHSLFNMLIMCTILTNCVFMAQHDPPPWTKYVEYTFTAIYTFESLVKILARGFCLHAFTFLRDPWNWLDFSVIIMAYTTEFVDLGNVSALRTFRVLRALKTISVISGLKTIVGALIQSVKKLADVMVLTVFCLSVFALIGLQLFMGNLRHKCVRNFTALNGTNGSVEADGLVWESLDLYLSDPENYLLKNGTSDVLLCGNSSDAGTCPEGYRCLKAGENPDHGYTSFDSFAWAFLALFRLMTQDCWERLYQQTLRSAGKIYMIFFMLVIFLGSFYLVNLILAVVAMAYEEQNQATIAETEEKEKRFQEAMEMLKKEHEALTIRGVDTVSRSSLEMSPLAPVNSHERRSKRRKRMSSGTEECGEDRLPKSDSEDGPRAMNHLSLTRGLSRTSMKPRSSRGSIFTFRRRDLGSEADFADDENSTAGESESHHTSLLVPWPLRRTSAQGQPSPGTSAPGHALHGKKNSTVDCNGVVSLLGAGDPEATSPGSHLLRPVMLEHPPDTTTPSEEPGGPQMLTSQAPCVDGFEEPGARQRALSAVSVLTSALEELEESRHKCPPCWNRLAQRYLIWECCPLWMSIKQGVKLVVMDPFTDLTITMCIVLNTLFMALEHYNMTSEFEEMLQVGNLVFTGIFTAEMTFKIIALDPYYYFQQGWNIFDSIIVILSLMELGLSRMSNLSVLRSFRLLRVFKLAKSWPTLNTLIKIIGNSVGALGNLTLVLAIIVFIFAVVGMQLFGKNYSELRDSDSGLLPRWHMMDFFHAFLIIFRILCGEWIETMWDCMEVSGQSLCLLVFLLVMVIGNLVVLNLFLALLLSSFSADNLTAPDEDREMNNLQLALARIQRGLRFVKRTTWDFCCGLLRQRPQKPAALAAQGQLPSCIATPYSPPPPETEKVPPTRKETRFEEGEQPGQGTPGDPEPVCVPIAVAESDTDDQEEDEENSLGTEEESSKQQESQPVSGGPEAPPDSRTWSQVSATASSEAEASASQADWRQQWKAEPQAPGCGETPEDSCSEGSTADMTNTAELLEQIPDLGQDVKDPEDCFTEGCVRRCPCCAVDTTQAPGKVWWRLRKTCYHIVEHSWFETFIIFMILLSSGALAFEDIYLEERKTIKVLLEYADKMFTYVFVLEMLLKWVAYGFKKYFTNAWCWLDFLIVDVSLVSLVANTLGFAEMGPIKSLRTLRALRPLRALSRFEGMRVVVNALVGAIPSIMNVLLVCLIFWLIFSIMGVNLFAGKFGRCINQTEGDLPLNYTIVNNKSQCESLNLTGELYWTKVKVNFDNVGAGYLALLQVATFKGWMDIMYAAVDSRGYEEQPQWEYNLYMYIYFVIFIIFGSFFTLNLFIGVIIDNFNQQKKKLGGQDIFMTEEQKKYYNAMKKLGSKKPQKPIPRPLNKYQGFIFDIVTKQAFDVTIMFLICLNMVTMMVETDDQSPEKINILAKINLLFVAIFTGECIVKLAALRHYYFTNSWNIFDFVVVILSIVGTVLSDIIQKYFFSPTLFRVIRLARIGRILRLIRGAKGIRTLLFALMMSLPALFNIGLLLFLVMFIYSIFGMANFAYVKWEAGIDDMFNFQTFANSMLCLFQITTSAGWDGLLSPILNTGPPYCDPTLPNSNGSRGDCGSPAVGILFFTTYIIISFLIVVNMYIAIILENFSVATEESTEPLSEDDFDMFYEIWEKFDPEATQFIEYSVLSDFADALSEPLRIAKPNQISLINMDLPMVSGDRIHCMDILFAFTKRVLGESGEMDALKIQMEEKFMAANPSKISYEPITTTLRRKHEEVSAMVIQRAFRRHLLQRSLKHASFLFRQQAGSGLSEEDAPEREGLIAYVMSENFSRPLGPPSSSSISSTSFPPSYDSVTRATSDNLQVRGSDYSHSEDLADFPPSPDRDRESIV
Protocol: as §1, §2, §3

T1 sequence (Q15858 whole entry): as the sequence (Q15858 whole entry) above
T1 sequence (Q07699 19-218 partner): as the sequence (Q07699 19-218 partner) above
T1 sequence (O60939 30-215 partner): as the sequence (O60939 30-215 partner) above

| SMILES | IC50 (hNaV1.7) [nM] | IC50 (NaV1.7) [nM] | inhibition at 1 hour, 6 µM (CYP3A4) [%] | reduction in pain response (formalin assay phase 2) [1] | reduction in pain response (formalin assay, phase 1) [1] | IC50 (NaV1.5) [nM] |
| --- | --- | --- | --- | --- | --- | --- |
| O=C(O)CCNCCCc1cc(Cl)ccc1Oc1cc(F)c(S(=O)(=O)Nc2ncns2)cc1Cl [Compound 12, 3-((3-(2-(4-(N-(1,2,4-thiadiazol-5-yl)sulfamoyl)-2-chloro-5-fluorophenoxy)-5-chlorophenyl)propyl)amino)propanoic acid] | < 130 | < 100 | 50 to 100 | 29-43% | 13-24% | – |
| CS(=O)(=O)CCNCCCc1cc(Cl)ccc1Oc1cc(F)c(S(=O)(=O)Nc2cscn2)cc1Cl [Compound 44, 5-chloro-4-(4-chloro-2-(3-((2-(methylsulfonyl)ethyl)amino)propyl)phenoxy)-2-fluoro-N-(thiazol-4-yl)benzenesulfonamide] | – | < 100 | – | – | – | > 10000 |
| O=C(O)CCNCCCc1cc(Cl)ccc1Oc1cc(F)c(S(=O)(=O)Nc2cscn2)cc1F [Compound 22, 3-((3-(5-chloro-2-(2,5-difluoro-4-(N-(thiazol-4-yl)sulfamoyl)phenoxy)phenyl)propyl)amino)propanoic acid] | 1000 to 20000 | 100 to 1000 | 0 to 25 | – | – | – |
| O=C(O)CNCCCc1cc(Cl)ccc1Oc1cc(F)c(S(=O)(=O)Nc2cscn2)cc1F [Compound 21, 2-((3-(5-chloro-2-(2,5-difluoro-4-(N-(thiazol-4-yl)sulfamoyl)phenoxy)phenyl)propyl)amino)acetic acid] | 1000 to 20000 | 100 to 1000 | 0 to 25 | – | – | – |
| CC(NC(=O)c1cc(-c2cc(Cl)ccc2Oc2cc(F)c(S(=O)(=O)Nc3ncns3)cc2Cl)ccn1)C(=O)O (racemic) [Compound 5, 2-(4-(2-(4-(N-(1,2,4-thiadiazol-5-yl)sulfamoyl)-2-chloro-5-fluorophenoxy)-5-chlorophenyl)picolinamido)propanoic acid] | 130 to 1000 | < 100 | 25 to 50 | – | – | – |
| O=S(=O)(Nc1cscn1)c1cc(Cl)c(Oc2ccccc2-c2cnn3c2NCCC3)cc1F [Compound 58, 5-chloro-2-fluoro-4-(2-(4,5,6,7-tetrahydropyrazolo[1,5-a]pyrimidin-3-yl)phenoxy)-N-(thiazol-4-yl)benzenesulfonamide] | 1000 to 20000 | 1000 to 10000 | – | – | – | > 10000 |
| NC(CCNCCCc1cc(Cl)ccc1Oc1cc(F)c(S(=O)(=O)Nc2cscn2)cc1Cl)C(=O)O (stereo not drawn) [Compound 17, 2-amino-4-((3-(5-chloro-2-(2-chloro-5-fluoro-4-(N-(thiazol-4-yl)sulfamoyl)phenoxy)phenyl)propyl)amino)butanoic acid] | 1000 to 20000 | 100 to 1000 | 0 to 25 | – | – | – |
| C[C@@H](NC(=O)c1cc(-c2cc(Cl)ccc2Oc2cc(F)c(S(=O)(=O)Nc3ncns3)cc2Cl)ccn1)C(=O)O [Compound 6, (R)-2-(4-(2-(4-(N-(1,2,4-thiadiazol-5-yl)sulfamoyl)-2-chloro-5-fluorophenoxy)-5-chlorophenyl)picolinamido)propanoic acid] | 130 to 1000 | < 100 | 25 to 50 | – | – | – |
| O=S(=O)(Nc1nccs1)c1cc(Cl)c(Oc2ccccc2-c2cnn3c2NCCC3)cc1F [Compound 56, 5-chloro-2-fluoro-4-(2-(4,5,6,7-tetrahydropyrazolo[1,5-a]pyrimidin-3-yl)phenoxy)-N-(thiazol-2-yl)benzenesulfonamide] | 500 to 1000 | – | – | – | – | > 10000 |

Reference: patent US20160221974A1, “SODIUM CHANNEL MODULATORS FOR THE TREATMENT OF PAIN AND DIABETES” (CHROMOCELL CORPORATION, priority 2013, published 2016)
